Assay results taken from paper PMC10290335 (Malaria Journal, 2023).

Columns and labels:
[1] = Clinical pharmacokinetics of ivermectin metabolites in blood of healthy volunteers; type: in vivo, human; conditions: for Cmax [ratio]: area/internal standard area ratio; for Cmax [ratio] / Half-life / MRTlast / Tmax: whole blood, 12 subjects, mean ± SE; for Cmax [ratio] / Half-life / MRTlast: 12 mg ivermectin, NCA; for Tmax: single oral 12 mg ivermectin
Experimental: Peripheral venous blood samples were collected before dosing and after 1, 2, 4, 6, 8, 12, 24, 48 and 72 h. Blood samples (50 µL) were extracted by the addition of 150 µL ISTD solution. Samples were mixed for 1 min and centrifuged for 30 min at 3220×g and 15 °C (5810 R centrifuge). Twenty microlitres of supernatant were injected into the LC–MS/MS system to determine the signal intensity of the metabolites.
The different LC–MS/MS settings were applied for the metabolism, pharmacokinetic and metabolite fractioning assays (Additional file 1: Table S1, S2, S3). All analyses were performed on a modular HPLC (Shimadzu, Kyoto, Japan) composed of four pumps (2 × LC-30AD, 2 × LC-20AD), an autosampler (SIL 30-AC MP), a system controller (CBM-20A), two degassing units (DGU-20A5 and DGU-20A3R), a column oven (CTO-20AC), a low-pressure valve (FCV-12AH), and a fraction collector (FRC-12A). The HPLC system was connected to an API 5000 triple quadrupole mass spectrometer (AB Sciex, Ontario, Canada) that was equipped with a turbo electrospray ionization source. The system was operated with Analyst Software 1.7 (AB Sciex) and acquired data were analysed using MultiQuant Software 3.0.3 (AB Sciex).
The integral method “linear up log down” was used on area/internal standard area ratio.
In total, three T0 blank blood samples originating from different PK study participants were used to resuspend the metabolites (Additional file 1: Table S5). The signal intensity was recorded for every metabolite by extracting the 50 µL blood with 150 µL of ISTD solution. The metabolite peak area was determined by LC–MS/MS (see section LC-MS/MS analysis of ivermectin). Moreover, the PK samples of all study participants were equally extracted and analysed to derive the maximal blood level (Cmax) from the blood level-time curves. Afterwards, the mean metabolite peak area of the spiked blank blood was compared with the mean peak area of the Cmax samples (Additional file 1: Table S5). The amount of each metabolite fraction was either reduced or increased to match the peak area of Cmax samples. If the metabolite was not detectable in PK samples, the amount of metabolite was adjusted to the lower limit of detection of the method. In this case, blank blood was spiked with the metabolite fraction to receive a signal intensity that is three times larger than the corresponding noise level.

[2] = test system: Anopheles stephensi mosquitoes; assay: Anopheles stephensi membrane feeding screening assay (survival and activity); type: in vivo; conditions: for Average activity score: score +2 flying, +1 moving, 0 dead; for activity against An. stephensi: at Cmax levels observed in clinical PK samples
Experimental: The final DMSO content in blood was 0.1%, which was also the DMSO concentration used for the negative control assays (0.1% DMSO in blank blood). Inclusion of blank fractions as additional negative controls were not considered, because it would not have been feasible to also test the corresponding blank fraction for each metabolite fraction (F1–F9). The blood preparations were rotated at room temperature for 20 min to ensure a uniform metabolite distribution (Rotator Genie, Scientific Industries, Bohemia, USA). The dissolution of the metabolites was confirmed by LC–MS/MS.
Around 50–70 female mosquitoes aged 5–10 days post-emergence were transferred with a mouth aspirator into 20 mL paper cups. A piece of mosquito netting was used to cover the cups. Mosquitoes were starved for 24 h before treatment. The mosquito blood meals were heated in a water bath (SAHARA PPO S5P Heated Bath Circulators, Thermo Fisher Scientific, New Hampshire, USA) for 20 min at 39 °C. A Petri dish (35 mm × 10 mm, BD, Franklin Lakes, USA) was filled with 3 mL of warm blood, sealed with a piece of sealing film (Parafilm®, Huberlab AG, Aesch, Switzerland). The Petri dish was placed upside down on top of the net sealing the paper cup. Female mosquitoes were allowed to feed for 20 min on the blood through the net and the sealing film. The feeding was conducted in a climate chamber (HPP110, Memmert GmbH + Co.KG, Schwabach, Germany) at 27 °C, 70% humidity, and 30% light intensity. After feeding, the cups were put on ice to immobilise the mosquitoes and only the fully engorged mosquitoes were selected for the assay. The mosquitoes were returned to the climate chamber to assess their activity and survival for 3 days.
In the framework of screening assays, mosquitoes were treated with blood containing each metabolite corresponding to Cmax levels observed in PK samples. […] In screening assays, eleven treatments were evaluated with three replicates using three batches of 50–70 mosquitoes.

[3] = mean of PK subjects 1-12, 50 µL blood

| Compound | Observed Cmax, peak area ([1]; PK subject 1, 50 µL blood) | Observed Cmax, peak area ([1]; PK subject 2, 50 µL blood) | Observed Cmax, peak area ([1]; PK subject 3, 50 µL blood) | Observed Cmax, peak area ([1]; PK subject 4, 50 µL blood) | Observed Cmax, peak area ([1]; PK subject 5, 50 µL blood) | Observed Cmax, peak area ([1]; PK subject 6, 50 µL blood) | Observed Cmax, peak area ([1]; PK subject 7, 50 µL blood) | Observed Cmax, peak area ([1]; PK subject 8, 50 µL blood) | Observed Cmax, peak area ([1]; PK subject 9, 50 µL blood) | Observed Cmax, peak area ([1]; PK subject 10, 50 µL blood) | Observed Cmax, peak area ([1]; PK subject 11, 50 µL blood) | Observed Cmax, peak area ([1]; PK subject 12, 50 µL blood) | Cmax [ratio] [1] | Observed Cmax, peak area [1, 3] | Half-life [1] | Tmax [1] | Average activity score ([2]; 0 h post feeding) | Average activity score ([2]; 24 h post feeding) | Average activity score ([2]; 48 h post feeding) | Average activity score ([2]; 72 h post feeding) | also measured |
| --- | --- | --- | --- | --- | --- | --- | --- | --- | --- | --- | --- | --- | --- | --- | --- | --- | --- | --- | --- | --- | --- |
| 3″-O-desmethyl, 26-hydroxy-H2B1a [M6] | 3.04E+03 counts | 1.56E+03 counts | 2.10E+03 counts | 1.60E+03 counts | 1.15E+03 counts | 3.23E+03 counts | 1.62E+03 counts | 1.82E+03 counts | 1.80E+03 counts | 1.99E+03 counts | 2.12E+03 counts | 2.69E+03 counts | 0.002 ± 0.0002 ratio | 2.06E+03 counts | 32.4 ± 4.1 h | 5.4 ± 0.4 h | 2.00 | 1.89 | 1.91 | 1.42 | MRTlast [1]: 18.3 ± 1.6 h; activity against An. stephensi [2]: minor mosquitocidal properties; mean survival of mosquitoes after blood meal ([2]; blood meal at Cmax level): decreased |
| 4, 26-dihydroxy- H2B1a [M8] | 7.02E+02 counts | 5.34E+02 counts | 4.91E+02 counts | 3.41E+02 counts | 3.43E+02 counts | 6.41E+02 counts | 3.42E+02 counts | 4.91E+02 counts | 4.29E+02 counts | 4.93E+02 counts | 2.79E+02 counts | 4.55E+02 counts |  | 4.62E+02 counts |  | 5.0 ± 0.3 h | 2.00 | 1.91 | 1.93 | 1.68 |  |
| 26-hydroxy-H2B1a [M3] | 6.21E+03 counts | 3.33E+03 counts | 4.98E+03 counts | 2.70E+03 counts | 3.63E+03 counts | 5.52E+03 counts | 4.44E+03 counts | 4.04E+03 counts | 3.41E+03 counts | 4.42E+03 counts | 4.22E+03 counts | 4.51E+03 counts | 0.003 ± 0.0003 ratio | 4.28E+03 counts | 15.9 ± 2.8 h | 5.3 ± 0.2 h | 2.00 | 1.82 | 1.86 | 1.67 | MRTlast [1]: 13.9 ± 1.3 h |
| 26-hydroxy-H2B1a monosaccharide [M7] | 1.31E+03 counts | 7.70E+02 counts | 9.70E+02 counts | 7.68E+02 counts | 8.12E+02 counts | 1.39E+03 counts | 1.26E+03 counts | 1.09E+03 counts | 7.88E+02 counts | 9.63E+02 counts | 1.21E+03 counts | 9.57E+02 counts |  | 1.02E+03 counts |  | 6.1 ± 0.4 h | 2.00 | 1.85 | 1.80 | 1.69 |  |
| CCC(C)C1OC2(CCC1C)CC1CC(CC=C(C)C(OC3CC(OC)C(OC4CC(O)C(O)C(C)O4)C(C)O3)C(C)C=CC=C3COC4C(O)C(CO)=CC(C(=O)O1)C34O)O2 (centres unmarked) [M4, 3″-O-desmethyl, 4-hydroxy-H2B1a] | 6.13E+03 counts | 4.65E+03 counts | 5.03E+03 counts | 4.08E+03 counts | 2.43E+03 counts | 7.98E+03 counts | 4.09E+03 counts | 5.21E+03 counts | 4.12E+03 counts | 5.38E+03 counts | 5.67E+03 counts | 5.92E+03 counts | 0.004 ± 0.0004 ratio | 5.06E+03 counts | 57.5 ± 13.2 h | 6.0 ± 0.2 h | 2.00 | 1.84 | 1.30 | 0.57 | MRTlast [1]: 29.4 ± 1.7 h; activity against An. stephensi [2]: minor mosquitocidal properties; mean survival of mosquitoes after blood meal ([2]; blood meal at Cmax level): decreased; mosquito survival ([2]; blood meal at Cmax level, observation period of 3 days): 35% |
| CC[C@H](C)[C@H]1O[C@]2(CC[C@@H]1CO)C[C@@H]1C[C@@H](C/C=C(\C)[C@@H](O[C@H]3C[C@H](OC)[C@@H](O)[C@H](C)O3)[C@@H](C)/C=C/C=C3\CO[C@@H]4[C@H](O)C(C)=C[C@@H](C(=O)O1)[C@]34O)O2 [M5, 24-hydroxy-H2B1a monosaccharide] | 7.86E+02 counts | 5.85E+02 counts | 1.01E+03 counts | 7.22E+02 counts | 6.06E+02 counts | 1.25E+03 counts | 8.58E+02 counts | 6.84E+02 counts | 6.59E+02 counts | 7.23E+02 counts | 8.95E+02 counts | 7.29E+02 counts |  | 7.92E+02 counts |  | 6.4 ± 0.4 h | 2.00 | 1.90 | 1.86 | 1.81 |  |
